Measurements from PubChem BioAssay (NCI).
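Compound exposure: 48 hours, 5 concentrations, 96-well plates. TGI: total growth inhibition.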

Legend:
Experiment in all cases: NCI-60 cell line screen, 48 h
[1] = test system: 786-0 renal
[2] = test system: A498 renal
[3] = test system: A549 NSCLC
[4] = test system: ACHN renal
[5] = test system: BT-549 breast
[6] = test system: CAKI-1 renal
[7] = test system: CCRF-CEM leukemia
[8] = test system: COLO 205 colon
[9] = test system: DU-145 prostate
[10] = test system: EKVX NSCLC
[11] = test system: HCC-2998 colon
[12] = test system: HCT-116 colon
[13] = test system: HCT-15 colon
[14] = test system: HL-60(TB) leukemia
[15] = test system: HOP-62 NSCLC
[16] = test system: HOP-92 NSCLC
[17] = test system: HS 578T breast
[18] = test system: HT29 colon
[19] = test system: IGROV1 ovarian
[20] = test system: K-562 leukemia
[21] = test system: KM12 colon
[22] = test system: LOX IMVI melanoma
[23] = test system: M14 melanoma
[24] = test system: MALME-3M melanoma
[25] = test system: MCF7 breast
[26] = test system: MDA-MB-231 breast
[27] = test system: MDA-MB-435
[28] = test system: MDA-N
[29] = test system: MOLT-4 leukemia
[30] = test system: NCI-H226 lung
[31] = test system: NCI-H23 lung
[32] = test system: NCI-H460 lung
[33] = test system: NCI-H522 lung
[34] = test system: NCI/ADR-RES ovarian
[35] = test system: OVCAR-3 ovarian
[36] = test system: OVCAR-4 ovarian
[37] = test system: OVCAR-5 ovarian
[38] = test system: OVCAR-8 ovarian
[39] = test system: PC-3 prostate
[40] = test system: RPMI-8226 leukemia
[41] = test system: RXF 393 renal
[42] = test system: SF-268 CNS
[43] = test system: SF-295 CNS
[44] = test system: SF-539 CNS
[45] = test system: SK-MEL-2 melanoma
[46] = test system: SK-MEL-28 melanoma
[47] = test system: SK-MEL-5 melanoma
[48] = test system: SK-OV-3 ovarian
[49] = test system: SN12C renal
[50] = test system: SNB-19 CNS
[51] = test system: SNB-75 CNS
[52] = test system: SR leukemia
[53] = test system: SW-620 colon
[54] = test system: T-47D breast
[55] = test system: TK-10 renal
[56] = test system: U251 CNS
[57] = test system: UACC-257 melanoma
[58] = test system: UACC-62 melanoma
[59] = test system: UO-31 renal

`COc1ccc(/C=C/C(=O)Oc2ccc(/C=C3\CCCCC3=O)cc2)cc1` gave a TGI [1] greater than 100 µM, a TGI [2] greater than 100 µM and a TGI [3] greater than 100 µM. It also gave a TGI [4] greater than 100 µM, a TGI [5] greater than 100 µM and a TGI [6] greater than 100 µM. It also gave a TGI [7] of 6.77 µM, a TGI [8] greater than 93.2 µM and a TGI [9] greater than 100 µM. It also gave a TGI [10] greater than 100 µM, a TGI [11] greater than 72.3 µM and a TGI [12] greater than 95.4 µM. The TGI [13] was greater than 100 µM, the TGI [14] was greater than 83.6 µM and the TGI [15] was greater than 77.3 µM. It also gave a TGI [16] greater than 100 µM, a TGI [17] greater than 100 µM and a TGI [18] of 26.3 µM. For the same molecule, the TGI [19] was greater than 100 µM, the TGI [20] was greater than 100 µM and the TGI [21] was greater than 100 µM. For the same molecule, the TGI [22] was greater than 100 µM, the TGI [23] was greater than 100 µM and the TGI [24] was greater than 100 µM. For the same molecule, the TGI [25] was greater than 100 µM, the TGI [26] was greater than 83.9 µM and the TGI [27] was greater than 100 µM. It also gave a TGI [28] greater than 100 µM, a TGI [29] of 7.51 µM and a TGI [30] greater than 100 µM. For the same molecule, the TGI [31] was greater than 100 µM, the TGI [32] was greater than 100 µM and the TGI [33] was greater than 100 µM. The TGI [34] was greater than 100 µM, the TGI [35] was greater than 100 µM and the TGI [36] was greater than 90.2 µM. It also gave a TGI [37] greater than 100 µM, a TGI [38] greater than 100 µM and a TGI [39] greater than 100 µM. It also gave a TGI [40] of 13.9 µM, a TGI [41] greater than 100 µM and a TGI [42] greater than 69.5 µM. For the same molecule, the TGI [43] was 49.4 µM, the TGI [44] was greater than 100 µM and the TGI [45] was greater than 100 µM. For the same molecule, the TGI [46] was greater than 100 µM, the TGI [47] was greater than 100 µM and the TGI [48] was greater than 100 µM. It also gave a TGI [49] greater than 100 µM, a TGI [50] greater than 100 µM and a TGI [51] greater than 100 µM. The TGI [52] was greater than 100 µM, the TGI [53] was greater than 100 µM and the TGI [54] was greater than 100 µM. For the same molecule, the TGI [55] was greater than 100 µM, the TGI [56] was greater than 100 µM and the TGI [57] was greater than 100 µM. For the same molecule, the TGI [58] was greater than 100 µM and the TGI [59] was greater than 100 µM.

For `C=C1C2CC[C@@](C)(O)C2[C@H]2OC(=O)C(=C)[C@@H]2C[C@H]1O` (some centres not stated), the TGI [1] was 39.2 µM, the TGI [2] was greater than 100 µM and the TGI [3] was greater than 100 µM. The TGI [4] was 22.7 µM, the TGI [5] was 24.8 µM and the TGI [6] was 27.2 µM. For the same molecule, the TGI [7] was 17.9 µM, the TGI [8] was 37.6 µM and the TGI [9] was 35.5 µM. It also gave a TGI [10] greater than 100 µM, a TGI [11] of 37.3 µM and a TGI [12] greater than 100 µM. It also gave a TGI [13] of 45.9 µM, a TGI [14] greater than 100 µM and a TGI [15] greater than 100 µM. The TGI [16] was 88.9 µM, the TGI [17] was 71.5 µM and the TGI [18] was 32.7 µM. It also gave a TGI [19] greater than 100 µM, a TGI [20] greater than 100 µM and a TGI [21] of 46.2 µM. It also gave a TGI [22] of 35 µM, a TGI [23] of 31.9 µM and a TGI [24] of 30.5 µM. The TGI [25] was 27.3 µM, the TGI [26] was 80.1 µM and the TGI [27] was greater than 100 µM. It also gave a TGI [28] of 91.1 µM, a TGI [29] of 60 µM and a TGI [30] of 40.1 µM. The TGI [31] was 36 µM, the TGI [33] was 35.6 µM and the TGI [34] was 45.8 µM. It also gave a TGI [35] of 64.1 µM, a TGI [36] of 30.3 µM and a TGI [37] greater than 100 µM. For the same molecule, the TGI [38] was 56.5 µM, the TGI [39] was greater than 100 µM and the TGI [40] was greater than 100 µM. For the same molecule, the TGI [41] was 71.9 µM, the TGI [42] was greater than 100 µM and the TGI [43] was greater than 100 µM. It also gave a TGI [44] of 27.2 µM, a TGI [45] of 50.7 µM and a TGI [46] of 72.8 µM. The TGI [47] was 28.8 µM, the TGI [48] was 80.2 µM and the TGI [49] was 59 µM. The TGI [50] was greater than 100 µM, the TGI [51] was greater than 100 µM and the TGI [52] was greater than 100 µM. The TGI [53] was greater than 100 µM, the TGI [54] was 42.1 µM and the TGI [55] was 37.8 µM. It also gave a TGI [56] greater than 100 µM, a TGI [57] of 41.8 µM and a TGI [58] of 30.1 µM. For the same molecule, the TGI [59] was 31.5 µM.
